Test results published in patent US8975406B2, “Compound useful for the treatment of degenerative and inflammatory diseases” (Galapagos N.V., priority 2011, dated 2015).

Tests used:
[1] = system: JAK-STAT signalling in HeLa cells; test: JAK-STAT signalling assay (pSTAT1(2)-luciferase reporter, OSM-triggered HeLa cells); assay type: cell-based; settings: human OSM 33 ng/mL
Description: HeLa cells were maintained in Dulbecco's Modified Eagle's Medium (DMEM) containing 10% heat inactivated fetal calf serum, 100 U/mL penicillin and 100 μg/mL streptomycin. HeLa cells were used at 70% confluence for transfection. 20,000 cells in 87 μL cell culture medium were transiently transfected with 40 ng pSTAT1(2)-luciferase reporter (Panomics), 8 ng of LacZ reporter as internal control reporter and 52 ng of pBSK using 0.32 μL Jet-PEI (Polyplus) as transfection reagent per well in 96-well plate format. After overnight incubation at 37° C., 5% CO2, transfection medium was removed. 81 μL of DMEM+1.5% heat inactivated fetal calf serum was added. 9 μL compound at 10× concentration was added for 60 min and then 10 μL of human OSM (Peprotech) at 33 ng/mL final concentration.
All compounds were tested in duplicate starting from 20 μM followed by a ⅓ serial dilution, 8 doses in total (20 μM-6.6 μM-2.2 μM-740 nM-250 nM-82 nM-27 nM-9 nM) in a final concentration of 0.2% DMSO.
After overnight incubation at 37° C., 5% CO2 cells were lysed by adding 100 μL lysis buffer/well (PBS, 0.9 mM CaCl2, 0.5 mM MgCl2, 10% Trehalose, 0.05% Tergitol NP9, 0.3% BSA).
40 μL of cell lysate was used to read β-galactosidase activity by adding 180 μL β-Gal solution (30 μl ONPG 4 mg/mL+150 μL β-Galactosidase buffer (0.06 M Na2HPO4, 0.04 M NaH2PO4, 1 mM MgCl2)) for 20 min. The reaction was stopped by addition of 50 μL Na2CO3 1 M. Absorbance was read at 405 nm.
Luciferase activity was measured using 40 μL cell lysate plus 40 μL of Steadylite® as described by the manufacturer (Perkin Elmer), on the Envision (Perkin Elmer).
Omitting OSM was used as a positive control (100% inhibition). As negative control 0.5% DMSO (0% inhibition) was used. The positive and negative controls were used to calculate z′ and ‘percent inhibition’ (PIN) values. Percentage inhibition=((fluorescence determined in the presence of vehicle−fluorescence determined for sample with test compound present)divided by(fluorescence determined in the presence of vehicle−fluorescence determined for sample without trigger))*100.
PIN values were plotted for compounds tested in dose-response and EC50 values were derived.

[2] = molecular target: T1, Recombinant human JAK3 catalytic domain (Homo sapiens, UniProt P52333); test: JAK3 inhibition assay; assay type: biochemical; settings: polyGT substrate, 33P-gamma-ATP filter assay, 1 μM ATP
T1 construct: catalytic domain (amino acids 795-1124; catalog number 08-046); purchased Carna Biosciences 08-046
T1 sequence (P52333 795-1124): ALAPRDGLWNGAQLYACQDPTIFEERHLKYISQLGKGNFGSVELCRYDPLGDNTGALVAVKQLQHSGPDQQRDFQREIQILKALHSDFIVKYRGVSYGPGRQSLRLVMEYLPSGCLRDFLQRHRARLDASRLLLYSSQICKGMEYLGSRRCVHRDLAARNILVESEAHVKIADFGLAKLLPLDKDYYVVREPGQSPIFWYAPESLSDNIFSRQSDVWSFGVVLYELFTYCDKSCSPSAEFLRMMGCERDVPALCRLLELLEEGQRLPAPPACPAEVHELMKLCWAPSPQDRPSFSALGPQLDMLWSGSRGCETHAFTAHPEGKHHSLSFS
Description: Recombinant human JAK3 catalytic domain (amino acids 795-1124; catalog number 08-046) was purchased from Carna Biosciences. 0.5 ng JAK3 protein was incubated with 2.5 μg polyGT substrate (Sigma catalog number P0275) in kinase reaction buffer (25 mM Tris pH 7.5, 0.5 mM EGTA, 10 mM MgCl2, 2.5 mM DTT, 0.5 mM Na3VO4, 5 mM b-glycerolphosphate, 0.01% Triton X-100, 1 μM non-radioactive ATP, 0.25 μCi ^33P-gamma-ATP (Perkin Elmer, catalog number NEG602K001MC) final concentrations) with or without 5 μL containing test compound or vehicle (DMSO, 1% final concentration), in a total volume of 25 μL, in a polypropylene 96-well plate (Greiner, V-bottom). After 45 min at 30° C., reactions were stopped by adding 25 μL/well of 150 mM phosphoric acid. All of the terminated kinase reaction was transferred to prewashed (75 mM phosphoric acid) 96 well filter plates (Perkin Elmer catalog number 6005177) using a cell harvester (Perkin Elmer). Plates were washed 6 times with 300 μL per well of a 75 mM phosphoric acid solution and the bottom of the plates was sealed. 40 μL/well of Microscint-20 was added, the top of the plates was sealed and readout was performed using the Topcount (Perkin Elmer). Kinase activity was calculated by subtracting counts per min (cpm) obtained in the presence of a positive control inhibitor (10 μM staurosporine) from cpm obtained in the presence of vehicle. The ability of a test compound to inhibit this activity was determined as: Percentage inhibition=((cpm determined for sample with test compound present−cpm determined for sample with positive control inhibitor)divided by(cpm determined in the presence of vehicle−cpm determined for sample with positive control inhibitor))*100.
Dose dilution series were prepared for the compounds enabling the testing of dose-response effects in the JAK3 assay and the calculation of the IC50 for each compound. Each compound was routinely tested at concentration of 20 μM followed by a ⅕ serial dilution, 10 points in a final concentration of 1% DMSO. When potency of compound series increased, more dilutions were prepared and/or the top concentration was lowered (e.g. 5 μM, 1 μM).

Recombinant human JAK2 = molecular target: T2, Recombinant human JAK2 (Homo sapiens, UniProt O60674); test: JAK2 Ulight-JAK1 peptide assay; assay type: biochemical; settings: Ulight-JAK1(tyr1023) peptide, 7.5 μM ATP
T2 construct: catalytic domain (amino acids 808-1132; catalog number PV4210); GST; purchased Invitrogen PV4210
T2 sequence (O60674 808-1132): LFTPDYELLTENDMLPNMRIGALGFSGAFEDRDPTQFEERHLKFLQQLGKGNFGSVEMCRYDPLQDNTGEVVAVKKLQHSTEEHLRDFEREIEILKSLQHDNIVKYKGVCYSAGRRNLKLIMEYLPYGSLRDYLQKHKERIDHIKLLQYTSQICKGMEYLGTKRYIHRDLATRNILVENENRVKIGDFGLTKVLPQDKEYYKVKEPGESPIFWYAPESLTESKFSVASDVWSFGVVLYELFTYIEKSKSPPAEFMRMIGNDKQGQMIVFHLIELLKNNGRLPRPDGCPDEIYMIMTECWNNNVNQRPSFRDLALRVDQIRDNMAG
Description: Recombinant human JAK2 (catalytic domain, amino acids […]; catalog number PV4210) was purchased from Invitrogen. 0.0125 mU of JAK2 was incubated with 25 nM Ulight-JAK1(tyr1023) peptide (Perkin Elmer catalog number TRF0121) in kinase reaction buffer (25 mM HEPES pH7.0, 0.01% Triton X-100, 7.5 mM MgCl2, 2 mM DTT, 7.5 μM ATP) with or without 4 μL containing test compound or vehicle (DMSO, 1% final concentration), in a total volume of 20 μL, in a white 384 Opti plate (Perkin Elmer, catalog number 6007290). After 60 min at room temperature, reactions were stopped by adding 20 μL/well of detection mixture (1× detection buffer (Perkin Elmer, catalog number CR97-100C), 0.5 nM Europium-anti-phosphotyrosine (PT66) (Perkin Elmer, catalog number AD0068), 10 mM EDTA). Readout is performed using the Envision with excitation at 320 nm and measuring emission at 615 nm (Perkin Elmer). Kinase activity was calculated by subtracting relative fluorescence units (RFU) obtained in the presence of a positive control inhibitor (10 μM staurosporine) from RFU obtained in the presence of vehicle. The ability of a test compound to inhibit this activity was determined as: Percentage inhibition=((RFU determined for sample with test compound present−RFU determined for sample with positive control inhibitor)divided by(RFU determined in the presence of vehicle−RFU determined for sample with positive control inhibitor))*100.
Dose dilution series were prepared for each compound enabling the testing of dose-response effects in the JAK2 assay and the calculation of the IC50 for the compound. Each compound is routinely tested at concentration of 20 μM followed by a ⅕ serial dilution, 10 points in a final concentration of 1% DMSO. When potency of compound series increases, more dilutions are prepared and/or the top concentration are lowered (e.g. 5 μM, 1 μM). The data are expressed as the average IC50 from the assays±standard error of the mean.

SMILES | IC50 [1] | IC50 [2] | IC50 (Recombinant human JAK2)
O=C(Nc1cc2c(-c3ccc(OCc4cccnc4)cc3)cccn2n1)C1CC1 [Compound 8, N-(4-(4-(pyridin-3-ylmethoxy)phenyl)pyrazolo[1,5-a]pyridin-2-yl)cyclopropanecarboxamide] | > 1000 nM | 101 to 500 nM | 
CS(=O)(=O)C1CCN(Cc2ccc(-c3cccn4nc(NC(=O)C5CC5)c(Cl)c34)cc2F)CC1 [Compound 20, N-(3-chloro-4-(3-fluoro-4-((4-(methylsulfonyl)piperidin-1-yl)methyl)phenyl)pyrazolo[1,5-a]pyridin-2-yl)cyclopropanecarboxamide] | > 1000 nM | 501 to 1000 nM | 101 to 500 nM
CC(=O)Nc1cc2c(-c3ccc(CN4CCN(S(C)(=O)=O)CC4)c(F)c3)cccn2n1 [Compound 21] | 501 to 1000 nM | 101 to 500 nM | 0.01 to 100 nM
CC(=O)Nc1cc2c(-c3cnc(CN4CCN(S(C)(=O)=O)CC4)c(F)c3)cccn2n1 [Compound 26, N-(4-(5-fluoro-6-((4-(methylsulfonyl)piperazin-1-yl)methyl)pyridin-3-yl)pyrazolo[1,5-a]pyridin-2-yl)acetamide] | > 1000 nM | > 1000 nM | 101 to 500 nM
O=C(Nc1nn2cccc(-c3ccc(CN4CCS(=O)(=O)CC4)cc3)c2c1Cl)C1CC1 [Compound 13, Cyclopropanecarboxylic acid {4-[4-(1,1-dioxo-thiomorpholin-4-ylmethyl)-phenyl]-3-chloro-pyrazolo[1,5-a]pyridin-2-yl}-amide] | 501 to 1000 nM | 101 to 500 nM | 0.01 to 100 nM
CC(=O)Nc1cc2c(-c3ccc(CC(=O)N4COCC4(C)C)cc3)cccn2n1 [Compound 38, N-(4-(4-(2-(4,4-dimethyloxazolidin-3-yl)-2-oxoethyl)phenyl)pyrazolo[1,5-a]pyridin-2-yl)acetamide] |  | 501 to 1000 nM | 0.01 to 100 nM
CC(=O)Nc1cc2c(-c3ccc(CC(=O)N4CCOCC4)cc3)cccn2n1 [Compound 36, N-(4-(4-(2-morpholino-2-oxoethyl)phenyl)pyrazolo[1,5-a]pyridin-2-yl)acetamide] |  | 101 to 500 nM | 0.01 to 100 nM
CC(=O)Nc1cc2c(-c3ccc(CN4CCN(CC(F)(F)F)CC4)c(F)c3)cccn2n1 [Compound 28, N-(4-(3-fluoro-4-((4-(2,2,2-trifluoroethyl)piperazin-1-yl)methyl)phenyl)pyrazolo[1,5-a]pyridin-2-yl)acetamide] |  | 101 to 500 nM | 0.01 to 100 nM
COc1ccc(-c2cccn3nc(NC(=O)C4CC4)c(-c4ccccc4)c23)cc1 [Compound 7, N-(4-(4-methoxyphenyl)-3-phenylpyrazolo[1,5-a]pyridin-2-yl)cyclopropanecarboxamide] |  | > 1000 nM | > 1000 nM

More lines, now with the values ahead:

IC50 [1] | IC50 [2] | IC50 (Recombinant human JAK2) | SMILES
> 1000 nM | 0.01 to 100 nM | 101 to 500 nM | O=C(Nc1cc2c(-c3ccc4c(ccn4Cc4ccccc4)c3)cccn2n1)C1CC1 [Compound 3, N-(4-(1-benzyl-1H-indol-5-yl)pyrazolo[1,5-a]pyridin-2-yl)cyclopropanecarboxamide]
101 to 500 nM | 0.01 to 100 nM | 0.01 to 100 nM | CC(=O)Nc1cc2c(-c3ccc(CN4CCS(=O)(=O)CC4)c(F)c3)cccn2n1 [Compound 27, N-{4-[4-(1,1-Dioxo-thiomorpholin-4-ylmethyl)-3-fluoro-phenyl]-pyrazolo[1,5-a]pyridin-2-yl}-acetamide]
101 to 500 nM | 0.01 to 100 nM | 0.01 to 100 nM | O=C(NCCOc1ccccc1)c1ccc(-c2cccn3nc(NC(=O)C4CC4)cc23)cc1 [Compound 6, 4-(2-(cyclopropanecarboxamido)pyrazolo[1,5-a]pyridin-4-yl)-N-(2-phenoxyethyl)benzamide]
101 to 500 nM | 0.01 to 100 nM | 0.01 to 100 nM | C[C@H](c1ccc(-c2cccn3nc(NC(=O)C4CC4)cc23)cc1)N1CCN(S(C)(=O)=O)CC1 [Compound 46, (R)-N-(4-(4-(1-(4-(methylsulfonyl)piperazin-1-yl)ethyl)phenyl)pyrazolo[1,5-a]pyridin-2-yl)cyclopropanecarboxamide]
101 to 500 nM | 0.01 to 100 nM | 0.01 to 100 nM | CS(=O)(=O)N1CCN(Cc2ccc(-c3cccn4nc(NC(=O)C5CC5)cc34)cc2)CC1 [Compound 15, N-(4-(4-((4-(methylsulfonyl)piperazin-1-yl)methyl)phenyl)pyrazolo[1,5-a]pyridin-2-yl)cyclopropanecarboxamide]
 | 0.01 to 100 nM | 0.01 to 100 nM | CC(=O)Nc1cc2c(-c3ccc(CC(=O)N4CCCCC4)cc3)cccn2n1 [Compound 35, N-(4-(4-(2-oxo-2-(piperidin-1-yl)ethyl)phenyl)pyrazolo[1,5-a]pyridin-2-yl)acetamide]
 | 0.01 to 100 nM | 0.01 to 100 nM | CC(c1ccc(-c2cccn3nc(NC(=O)C4CC4)cc23)cc1)N1CCN(S(C)(=O)=O)CC1 (stereo not shown) [Compound 43, N-(4-(4-(1-(4-(methylsulfonyl)piperazin-1-yl)ethyl)phenyl)pyrazolo[1,5-a]pyridin-2-yl)cyclopropanecarboxamide]
 | 0.01 to 100 nM | 101 to 500 nM | O=C(Nc1cc2c(-c3ccc(OCc4ccccc4)cc3)cccn2n1)C1CC1 [Compound 2, N-(4-(4-(benzyloxy)phenyl)pyrazolo[1,5-a]pyridin-2-yl)cyclopropanecarboxamide]
